The values that follow come from patent US20020026052A1, “3-cyanoquinolines, 3-cyano-1,6-naphthyridines, and 3-cyano-1,7-naphthyridines as protein kinase inhibitors” (American Home Products Corporation, priority 2000, published 2002).

Where “and” joins values, the source holds several entries; their conditions need not be identical. Equal entries are not always repeated.

One series deals with T1, Raf1 (c-Raf) (Homo sapiens, UniProt P04049).
T1 construct: Sf9 insect cell lysate containing full length 6 his-tagged recombinant human c—Raf; 6His; host or cells: Sf9 insect cells (c-Raf, used as lysate); E. coli (GST-MEK1, GST-MAPK)
As to the kind of experiment: Raf1 Kinase Cascade Assay. Type of series: biochemical. How it is done: Raf1 Kinase Cascade Assay Procedure
(Specific Activity: ˜200 U/ml). Human Non-active Mek-1—GST and human GST-MAP kinase (recombinant proteins produced in E. coli).
Stock Solutions Raf Assay:
Assay Dilution Buffer (ADB): 2 OmM MOPS, pH 7.2, 25 mM B-glycerol phosphate, mM EGTA, 1 mM sodium orthovanadate, 1 mM dithiothreitol. Magnesium/ATP Cocktail: 500 AM cold ATP and 75 mM magnesium chloride in ADB.
Active Kinase: Human Active c—Raf: Use at 0.4 U per assay point. Non-active GST-MEK1: Use at 0.1, ug per assay point. Non-active GST-p42 MAP Kinase: Use at 1.0 tg per assay point.
TBST—Tris (50 mM, pH 7.5)-1H-, NaCl (150 mM), Tween-20 (0.05%) Superblock (Pierce) Anti—GST Ab (Pharmacia) Anti-Phospho MAPK (Sigma) Anti-Mouse Ab/Europium conjugate (Wallac)
Assay Procedure: First Stage: c—Raf Dependent Activation of GST-MEK and GST-MAPK Add […] of ADB per assay (i.e. per well of a 96 well plate) Add 10 ml of 0.5 mM cold ATP and 75 mM magnesium chloride in ADB. Add 2 ml of c—Raf (0.4 U/assay), in conjunction with 1.6 ml non-active MEKI (0.4 mg/assay). Add 4 ml of non-active GST-p42 MAP Kinase (1.0 mg/assay). Incubate for 60 minutes at 30° C. in a shaking incubator. Transfer this mixture to an anti—GST Ab coated 96 well plate (Nunc Immunosorb plates coated o/n with a—GST, then blocked with Pierce Superblock). Incubate for 60 minutes at 30° C. in a shaking incubator Wash 3×with TBST, add Anti-Phospho MAPK (Sigma) (1:3000)-1H-Incubate for 60 minutes at 30° C. in a shaking incubator Wash 3×with TBST, add Anti-Mouse Ab/Europium conjugate (Wallac) (1:500)-1H-Incubate for 60 minutes at 30° C. in a shaking incubator Wash 3×with TBST, Read plates in Wallac Victor model Plate Reader. Collect data analyze in Excel for single point and IC50 determinations.
IC50 determinations - done on compounds from single point assays with >80% inhibition. Typically Raf-1 assay is run at compound concentrations from 10 μM to 30 nM in half log dilutions. (% inhibition is determined for each compound concentration).

Series [1] concerns human adenocarcinoma cell line CaCo-2. As to the kind of experiment: Cell Based Screen for Inhibitors of Raf Kinase, CaCo-2. The following applies: four days incubation, SRB. How it is done:
(§1) Cell Based Screen for Inhibitors of Raf Kinase.
(§2) Cell Lines: Human adenocarcinoma cell line LoVo which is known to be growth inhibited by low nM concentrations of a reference standard inhibitor of Ras and human adenocarcinoma cell line CaCo-2, which is known to be growth resistant to the same reference compound. Cell Media: RPMI 1640 with 10% Fetal Bovine Serum supplemented with L-glutamine and Pennicilin/Streptomycin. Compounds: Supplied usually as a 10 mM stock in 100% DMSO. Normal Saline: 150 mM NaCl Trichloroacetic Acid (TCA): 50% (w/v) in water Sulforhodamine B (SRB): 0.4% (w/v) in 1% Acetic Acid Tris Base: 10 mM in water
(§3) Cells are plated at 2000 cells per well for cell line LoVo and 1500 cells for cell line CaCo-2 in 96 well plates. Cells are plated in media (200 μl) and allowed to adhere overnight at 37 ° C. At 24 hours post plating, compounds are added directly at a volume of 0.5 μl. For the qualitative screen (compounds screened at 25 μM) compound is added directly to cells. For the quantitative screen, compound is first diluted in DMSO to generate concentrations of compound or reference standard of: 1, 5, 10 and 25 μM. It is advisable to make the dilutions in an identical 96 well plate so that compounds may be added using a multichannel micropipettor set at 0.5 μl. The cells are then incubated for four days after which the media is removed using a 12 well manifold by first tipping the plate forward at a 45 degree angle and then inserting the manifold in an upright orientation to prevent the ti
(§4) of the manifold from disturbing cells at the bottom of the plate. 200 μl of normal saline is then added to each well using an 8 well multichannel pipettor, followed by the careful addition of 50 μl of 50% TCA. The plates are then incubated for 2 hours at 4 ° C, after which the supernatant is removed using the same technique as above and the plated washed twice with 200 ul water. The plates are then air dried and 50 μl of SRB stock solution is carefully added so that the entire bottom of each well is covered. This again may be used using an 8 well multichannel pipettor. The SRB is incubated with fixed cells for 15 minutes at room temperature after which the SRB is removed with the manifold as described above and the plates washed twice with 350 μl of 1% acetic acid per well each time.The plates are then air dried after which the bound SRB is released from protein by the addition of 200 µl of Tris base. Resolubilizing the SRB is aided by placing the plates on a rotator for 15-30 minutes. The absorbance of each well is determined at 550 or 562 nm using a microtiter plate reader.
(§5) Each compound or dilution thereof is performed in triplicate. Outliers are identified by visual inspection of the data. Each plate should have a “0” control (vehicle only). […] Quantitative Assay: A standard curve is constructed by plotting the concentration of compound against the average absorbance calculated at that concentration. A curve is plotted and the concentration at which the curve passes through the 50% the absorbance mark seen in the “0” control well is the IC50 calculated for that compound. Multiple entries for a given compound indicate that it was tested multiple times.

Series [2] concerns Human adenocarcinoma cell line LoVo. Briefly: Cell Based Screen for Inhibitors of Raf Kinase, LoVo. The following applies: four days incubation, SRB. How it is done:
as §1, §2, §3, §4, §5

Another series has as its target Src (Homo sapiens, UniProt P12931). As to the kind of experiment: c-Src Kinase Assay (ELISA). Type of series: biochemical. The procedure: Inhibitors of Src (partially purified preparation purchased from Upstate Biotechnologies) tyrosine kinase activity are analyzed in an ELISA format. […] Horseradish Peroxidase (HRP)-conjugated anti-phosphotyrosine is used to detect phosphorylated peptide via a color reaction. Conditions recommended by the manufacturer are employed.
Reaction conditions: Five microliter aliquots of each compound prepared fresh at the time of the assay are added as a solution in lOmM HEPES pH 7.5, 10% DMSO to the reaction well. Thirty-five microliters of reaction mix containing Src, buffer and peptide/bovine serum albumin mix are added to the compound wells and incubated at 30° C. for 10 minutes (reaction buffer: 5 OmM TrisHCI pH 7.5, l0 mM MgCl2, O.lmM EGTA, 0.5 mM Na3 VO4)-1H-. The reaction is started by addition of 10 microliters of ATP, incubated at 30° C. for 1 hour, and stopped by addition of 20 microliters of 0.5 M EDTA. The reaction mixture with the phosphorylated peptide is then transferred to a streptavidin-coated microtiter plate (provided in the kit) and allowed to bind for 20 minutes. IUnbound peptide and reaction mixture is decanted and the plate is washed with PBS six times. HRP-conjugated phosphotyrosine antibody supplied in the kit is incubated with the plate for one hour, then decanted. The plate is again washed with PBS six times.
Activity is determined as % inhibition as calculated by the formula: (1−Abs/Abs(max) ) ×100=% inhibition.

The target in series [3] is Rat2 fibroblasts stably transformed with v-Src/Hu c-Src fusion gene (Homo sapiens, UniProt P12931, cells depend on it, form not given). Briefly: Anchorage Independent Src-transformed Fibroblast Proliferation Assay. The series is classed as cell-based, Rat. To be noted: suspension growth, MTS reagent on Day 5; read-out: anch-indep src-tx fib IC50. How it is done:
Anchorage Independent Src-transformed Fibroblast Proliferation Assay
Rat2 fibroblasts stably transformed with a plasmid containing a CMV promotor controlled v-Src/Hu c-Src fusion gene in which the catalytic domain of human c-Src was inserted in place of the v-Src catalytic domain in the v-Src gene are used for the measurement of src dependent suspension growth. […] Multiple entries for a given compound indicate that it was tested multiple times.
On the technique in general: Tetrazolium dyes change colour on reduction, which living cells bring about.

As usually defined, the IC50 is the midpoint of a concentration-inhibition curve. On to “4-({3-Chloro-4-[(1-methyl-1H-imidazol-2-yl) sulfanyl]phenyl }amino)-7-[5-(1-pyridinyl]-3-quinolinecarbonitrile [Example 180]”, for which the figures for the IC50 (at Raf1 (c-Raf); in series [1]; in series [2]) were 3.7 nM, 930 nM and 5.6 nM, respectively.
Usually melting point stands for the temperature of the solid-liquid transition. On to `Cn1ccnc1Sc1ccc(Nc2c(C#N)cnc3cc(-c4csc(CN5CCOCC5)c4)ccc23)cc1Cl` [Example 33, 4-{3-chloro-4-[(1-methyl-1H-imidazol-2-yl)sulfanyl]anilino}-7-[5-(4-morpholinylmethyl)-3-thienyl]-3-quinolinecarbonitrile], for which the melting point is 110 to 113 °C. Also, the midpoint of inhibition on Raf1 (c-Raf), the IC50, lay at 6 nM. In series [2] (Homo sapiens, LoVo, 96 h), this compound registered an IC50 of 6 nM.
`COc1cc(Nc2c(C#N)cnc3cc(-c4ccc(CNCCc5ccccn5)o4)ccc23)c(Cl)cc1Cl` [Example 74, 4-(2,4-Dichloro-5-methoxyanilino)-7-[5-({[2-(2-pyridinyl)ethyl]amino}methyl)-2-furyl]-3-quinolinecarbonitrile] displayed a melting point of 130 to 135 °C. At Src, this compound gave a concentration for half-maximal inhibition (IC50) of 40 nM. The GI50 in series [3] amounted to 1400 nM.
Take `COc1cc(Nc2c(C#N)cnc3cc(-c4ccc(CN5CCC(O)CC5)s4)ccc23)c(Cl)cc1Cl` [Example 89, 4-(2,4-dichloro-5-methoxyanilino)-7-{5-[(4-hydroxy-1-piperidinyl)methyl]-2-thienyl}-3-quinolinecarbonitrile]: the IC50 against Src was 0.52 nM and 0.84 nM. Besides, the GI50 in series [3] was 90 nM.
Compound `COc1cc(Nc2c(C#N)cnc3cc(-n4cccc4CN(C)C)ccc23)c(Cl)cc1Cl` [Example 93] came in with a melting point of 157 to 158 °C. On Src, the 50% inhibitory concentration (IC50) is 610 nM and 680 nM. In series [3], the GI50 was more than 10000 nM.
The compound `COc1cc(Nc2c(C#N)cnc3cc(-c4ccc(-c5nnn[nH]5)cc4)ccc23)c(Cl)cc1Cl` [Example 105] showed an IC50 at Src of 10 nM. In series [3], the GI50 was > 10000 nM and 5900 nM.
Regarding `COc1cc(Nc2c(C#N)cnc3cc(-c4cc5ccccc5s4)ccc23)c(Cl)cc1Cl` [Example 120, 7-(1-benzothien-2-yl)-4-(2,4-dichloro-5-methoxyanilino)-3-quinolinecarbonitrile], the melting point lay in the range of 269 to 270 °C. Besides, the IC50 at Src amounted to 170 nM. The GI50 in series [3] was more than 10000 nM.
In the case of `COc1cc(Nc2c(C#N)cnc3cc(C#CCN4CCOCC4)ccc23)c(Cl)cc1Cl` [Example 146, 4-(2 ,4-Dichloro-5-methoxyanilino)-7-[3-(4-morpholinyl)-1-propynyl]-3-quinolinecarbonitrile], the melting point was in the range of 190 to 191 °C. The compound further showed an IC50 against Src of 22 nM. The GI50 in series [3] was 6500 nM.
Compound `Cn1ccnc1Sc1ccc(Nc2c(C#N)cnc3cc(-c4ccc(CN5CCCCC5)o4)ccc23)cc1Cl` [Example 155, 4-{3-Chloro-4-[(1-methyl-1H-imidazol-2-yl)sulfanyl]anilino}-7-[5-(1-piperidinylmethyl)-2-furyl]-3-quinolinecarbonitrile] showed a melting point of 214 to 215 °C. The compound also displayed a half-inhibitory concentration (IC50) on Raf1 (c-Raf) of 20 nM.
Turning to `COc1cc(Nc2c(C#N)cnc3cc(-c4ccc(-c5ccccc5)cc4)ccc23)c(Cl)cc1Cl` [Example 165, 7-[1,1-Biphenyl]-4-yl-4-(2,4-dichloro-5-methoxyanilino)-3-quinolinecarbonitile], the “ELISA c-src % inhibition” value on Src (at 10 nM) is recorded as 28% at 10 nM. For the same compound, in series [3], the GI50 is more than 10000 nM.
`Cn1ccnc1Sc1ccc(Nc2c(C#N)cnc3cc(-c4ccc(CN5CCOCC5)cn4)ccc23)cc1Cl` [Example 187, 4-{3-Chloro-4-[(1-methyl-1H-inidazol-2-yl)sulfanyl]anilino}-7-[5-(4-morpholinylmethyl)-2-pyridinyl]-3-quinolinecarbonitrile] came in with a melting point of 225 to 227 °C. Moreover, the IC50 in series [2] was found to be 9 nM.
Take `N#Cc1cnc2cc(-c3csc(CN4CCCCC4)c3)ccc2c1Nc1ccc(Sc2ccccc2)c(Cl)c1` [Example 462, 4-{[3-chloro-4-(phenylsulfanyl)phenyl]amino}-7-[5-(1-piperidinylmethyl)-3-thienyl]-3-quinolinecarbonitrile]: the IC50 against Raf1 (c-Raf) was determined as 50 nM.
Consider “(1-{4-[3-Cyano-4-(2,4-dichloro-5-methoxyanilino)-7-quinolinyl]benzyl }-4-piperidinyl) acetic acid [Example 100]”, for which the IC50 against Src was 0.57 nM. Moreover, the GI50 in series [3] is 340 nM and 400 nM.
With “(E)-3-[3-Cyano-4-(2,4-dichloro-5-methoxyanilino)-7-quinolinyl]-2-propenoic acid [Example 99]”, the IC50 at Src was 44 nM. Besides, in series [3], the GI50 is more than 10000 nM.
